These results are taken from patent US20250057846A1, “COMBINATION OF A TASK1/3 CHANNEL BLOCKER WITH A MUSCARINIC RECEPTOR ANTAGONIST FOR THE TREATMENT OF SLEEP APNEA” (BAYER AKTIENGESELLSCHAFT, priority 2021, published 2025).

This test relates to pig model of obstructive sleep apnea (OSA). The test is described as follows: pig model of obstructive sleep apnea (OSA): collapsibility of the upper respiratory tract under negative pressure. The test is classed as in vivo, German Landrace pigs. From the text: The therapeutic potential of the combination of a TASK1/3 channel blocker with a muscarinic receptor antagonist according to the present invention in sleep apnea can be assessed preclinically in a pig model of obstructive sleep apnea (OSA).
Using negative pressure, it is possible to induce collapse and thus obstruction of the upper respiratory tract in anaesthetized, spontaneously breathing pigs (Wirth K. J. et al., Sleep 36(5) (2013) pp. 699-708).
German Landrace pigs are used for the model. The pigs are anaesthetized and tracheotomized. Two tracheal cannulas are inserted into the trachea, one into the rostral part and the other into the caudal part of the trachea.
Using a connection piece, the rostral cannula is connected to a tube to the negative pressure device and to the distal tracheal cannula. The distal tracheal cannula is additionally connected to a tube with an open end to atmosphere via a connection piece that served for free tracheal breathing, circumventing the upper airway. By appropriate opening and clamping of those tubes breathing can be switched from nasal breathing to breathing through the caudal tracheal cannula, circumventing the upper airway, and the (isolated) upper airway can be connected to the negative pressure device, causing airflow in the inspiratory direction.
At certain points in time, the collapsibility of the upper respiratory tract is tested by having the pig breathe via the caudal cannula and applying negative pressures of −50, −100 and −150 cm water head (cm H2O) to the upper respiratory tract. This causes the upper respiratory tract to collapse, which manifests itself in an interruption of the airflow and a pressure drop in the tube system. This test is conducted prior to the administration of the test substance and at certain intervals after the administration of the test substance. An appropriately effective test substance can prevent this collapse of the respiratory tract in the inspiratory phase.

Where [1] appears, read: TASK1/TASK3 channel blocker alone, intranasal 0.3 μg, given at 0 min, time 0 min.
The mark [2] stands for this setting: TASK1/TASK3 channel blocker alone, intranasal 0.3 μg, given at 0 min, time 10 min.
The mark [3] stands for this setting: TASK1/TASK3 channel blocker alone, intranasal 0.3 μg, given at 0 min, time 30 min.
Where [4] appears, read: TASK1/TASK3 channel blocker alone, intranasal 0.3 μg, given at 0 min, time 60 min.
Where [5] appears, read: TASK1/TASK3 channel blocker alone, intranasal 0.3 μg, given at 0 min, time 90 min.
[6] abbreviates: oxybutynin i.v. bolus 1 mg/kg then i.v. infusion 0.275 mg/kg/h for four hours, given at 0 min, time 0 min.
Setting [7] is: R-oxybutynin i.v. bolus 1 mg/kg then i.v. infusion 0.275 mg/kg/h for four hours, given at 0 min, time 0 min.
Where [8] appears, read: R-oxybutynin i.v. bolus 1 mg/kg then i.v. infusion 0.275 mg/kg/h for four hours, given at 0 min, time 10 min.
Setting [9] is: R-oxybutynin i.v. bolus 1 mg/kg then i.v. infusion 0.275 mg/kg/h for four hours, given at 0 min, time 30 min.
Setting [10] is: R-oxybutynin i.v. bolus 1 mg/kg then i.v. infusion 0.275 mg/kg/h for four hours, given at 0 min, time 60 min.
[11] abbreviates: R-oxybutynin i.v. bolus 1 mg/kg then i.v. infusion 0.275 mg/kg/h for four hours, given at 0 min, time 120 min.
Where [12] appears, read: R-oxybutynin i.v. bolus 1 mg/kg then i.v. infusion 0.275 mg/kg/h for four hours, given at 0 min, time 180 min.
Setting [13] is: R-oxybutynin i.v. bolus 1 mg/kg then i.v. infusion 0.275 mg/kg/h for four hours, given at 0 min, time 240 min.
Where [14] appears, read: R-oxybutynin i.v. bolus 1 mg/kg then i.v. infusion 0.275 mg/kg/h for four hours, given at 0 min, time 300 min.
[15] abbreviates: combination experiment: R-oxybutynin i.v. bolus 1 mg/kg then infusion 0.275 mg/kg/h for four hours at 0 min, nasal TASK1/3 channel blocker only given at 120 min, time 0 min.
The mark [16] stands for this setting: combination experiment: R-oxybutynin i.v. bolus 1 mg/kg then infusion 0.275 mg/kg/h for four hours at 0 min, nasal TASK1/3 channel blocker only given at 120 min, time 10 min.
[17] abbreviates: combination experiment: R-oxybutynin i.v. bolus 1 mg/kg then infusion 0.275 mg/kg/h for four hours at 0 min, nasal TASK1/3 channel blocker only given at 120 min, time 30 min.
Setting [18] is: combination experiment: R-oxybutynin i.v. bolus 1 mg/kg then infusion 0.275 mg/kg/h for four hours at 0 min, nasal TASK1/3 channel blocker only given at 120 min, time 60 min.
Setting [19] is: combination experiment: R-oxybutynin i.v. bolus 1 mg/kg then infusion 0.275 mg/kg/h for four hours at 0 min, nasal TASK1/3 channel blocker only given at 120 min, time 90 min.
Setting [20] is: combination experiment: R-oxybutynin i.v. bolus 1 mg/kg then infusion 0.275 mg/kg/h for four hours at 0 min, time 120 min = time of nasal application of TASK1/3 channel blocker.

On to `COc1ccc(Cl)c(C(=O)N2C3CCC2CN(Cc2c(-c4ccc(C(C)C)cc4)nc4ncccn24)C3)n1` [(3-Chloro-6-methoxypyridin-2-yl)(3-{[2-(4-isopropylphenyl)imidazo[1,2-a]pyrimidin-3-yl]methyl}-3,8-diazabicyclo[3.2.1]oct-8-yl)methanone], for which the “effect of the dose on upper airway collapsibility” value (TASK1/TASK3 channel blocker alone, 0.3 μg) is “non effective dose”. Moreover, the “Percent pigs without collaps −50 cm H2O, %” value reads like this: under setting [1], 0%; under setting [2], 33%; under setting [3], 0%; under setting [4], 0%; under setting [5], 0%. Besides, the “Percent pigs without collaps −100 cm H2O, %” value runs as follows: under setting [1], 0%; under setting [2], 33%; under setting [3], 0%; under setting [4], 0%; under setting [5], 0%. In addition, the “Percent pigs without collaps −150 cm H2O, %” value is 0% under setting [1]; 0% under setting [2]; 0% under setting [3]; 0% under setting [4]; 0% under setting [5].

On to `CCN(CC)CC#CCOC(=O)C(O)(c1ccccc1)C1CCCCC1` (stereo not shown) [oxybutynin, Oxybutynin], for which, under setting [6], the “Percent pigs without collaps −50 cm H2O, %” value is on record as 0%; the “Percent pigs without collaps −100 cm H2O, %” value turned out to be 0%; the “Percent pigs without collaps −150 cm H2O, %” value is recorded as 0%. Also, the “time points at which upper airway collapsibility was inhibited at all three negative pressures of −50, −100 and −150 cm head (cm H2O) in all pigs” value (oxybutynin i.v. bolus 1 mg/kg then i.v. infusion 0,275 mg/kg/h for four hours) is “at no time point”.

Consider `CCN(CC)CC#CCOC(=O)[C@](O)(c1ccccc1)C1CCCCC1` [R-oxybutynin, R-Oxybutynin], for which the “time points at which upper airway collapsibility was inhibited at all negative pressures of −50, −100 and −150 cm head (cm H2O) in all pigs” value (R-Oxybutynin i.v. bolus 1 mg/kg then i.v. infusion 0,275 mg/kg/h for four hours) is reported as “at no time”. Moreover, where the note is “R-Oxybutynin i.v. bolus 1 mg/kg then i.v. infusion 0,275 mg/kg/h for four hours, time point 60 min after intravenous administration”, the “upper airway collapsibility at the negative pressure of −50 cm head (cm H2O)” value is on record as “inhibited”. Moreover, the “Percent pigs without collaps −50 cm H2O, %” value under setting [7] is on record as 0%; the “Percent pigs without collaps −50 cm H2O, %” value under setting [8] was found to be 0%; the “Percent pigs without collaps −50 cm H2O, %” value under setting [9] was found to be 0%; the “Percent pigs without collaps −50 cm H2O, %” value under setting [10] is reported as 100%; the “Percent pigs without collaps −50 cm H2O, %” value under setting [11] amounted to 0%; the “Percent pigs without collaps −50 cm H2O, %” value under setting [12] came out at 0%. The “Percent pigs without collaps −50 cm H2O, %” value under setting [13] was determined as 0%; the “Percent pigs without collaps −50 cm H2O, %” value under setting [14] turned out to be 0%; the “Percent pigs without collaps −50 cm H2O, %” value under setting [15] amounted to 0%; the “Percent pigs without collaps −50 cm H2O, %” value under setting [16] stood at 0%; the “Percent pigs without collaps −50 cm H2O, %” value under setting [17] is on record as 0%; the “Percent pigs without collaps −50 cm H2O, %” value under setting [18] is 100%. The “Percent pigs without collaps −50 cm H2O, %” value under setting [19] came to 0% and the “Percent pigs without collaps −50 cm H2O, %” value under setting [20] was determined as 0%. The “Percent pigs without collaps −100 cm H2O, %” value by setting is: under setting [7], 0%; under setting [8], 0%; under setting [9], 0%; under setting [10], 50%; under setting [11], 0%; under setting [12], 0%. For the same compound, the “Percent pigs without collaps −100 cm H2O, %” value was determined as 0% under setting [13]; 0% under setting [14]; 0% under setting [15]; 0% under setting [16]; 0% under setting [17]; 33% under setting [18]. Moreover, the “Percent pigs without collaps −100 cm H2O, %” value runs as follows: under setting [19], 0%; under setting [20], 0%. The “Percent pigs without collaps −150 cm H2O, %” value was 0% under setting [7]; 0% under setting [8]; 0% under setting [9]; 0% under setting [10]; 0% under setting [11]; 0% under setting [12]. For the same compound, the “Percent pigs without collaps −150 cm H2O, %” value was determined as 0% under setting [13]; 0% under setting [14]; 0% under setting [15]; 0% under setting [16]; 0% under setting [17]; 0% under setting [18]. The “Percent pigs without collaps −150 cm H2O, %” value worked out at 0% under setting [19] and 0% under setting [20].
